From patent US20150274719A1, “AMINO-SUBSTITUTED IMIDAZO[1,2-A]PYRIDINECARBOXAMIDES AND THEIR USE” (BAYER PHARMA AKTIENGESELLSCHAFT, priority 2012, published 2015) come the findings set out here.

One may read the half-life as the time needed for the level to fall by half in the phase considered. Low readings indicate fast loss, high ones slow loss. The term MRT denotes a mean duration of stay, worked out from the concentration-time curve.

In data set [1] the target is T1, recombinant guanylate cyclase reporter cell line (Rattus norvegicus, UniProt P19686+P20595).
T1 construct: expressed in transfected cells; host or cells: recombinant reporter cell line
T1 sequence (P19686 1-690): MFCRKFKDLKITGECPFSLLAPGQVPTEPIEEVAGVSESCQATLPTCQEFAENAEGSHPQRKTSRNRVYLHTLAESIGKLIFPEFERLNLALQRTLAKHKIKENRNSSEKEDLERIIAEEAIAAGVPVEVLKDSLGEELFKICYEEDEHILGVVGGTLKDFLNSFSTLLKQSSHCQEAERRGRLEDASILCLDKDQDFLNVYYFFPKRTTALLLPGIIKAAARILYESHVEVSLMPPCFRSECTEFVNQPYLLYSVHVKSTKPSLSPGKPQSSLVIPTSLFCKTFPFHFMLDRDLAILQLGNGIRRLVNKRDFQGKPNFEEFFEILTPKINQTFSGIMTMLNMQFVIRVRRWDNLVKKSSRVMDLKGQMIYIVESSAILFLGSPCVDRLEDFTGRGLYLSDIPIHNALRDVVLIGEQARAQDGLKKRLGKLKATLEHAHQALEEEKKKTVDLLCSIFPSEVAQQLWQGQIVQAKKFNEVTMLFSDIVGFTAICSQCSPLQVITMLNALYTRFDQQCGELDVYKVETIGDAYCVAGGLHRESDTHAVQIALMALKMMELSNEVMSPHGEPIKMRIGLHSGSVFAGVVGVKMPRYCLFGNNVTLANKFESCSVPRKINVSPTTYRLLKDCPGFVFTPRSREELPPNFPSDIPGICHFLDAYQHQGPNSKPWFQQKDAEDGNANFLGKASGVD
T1 sequence (P20595 1-619): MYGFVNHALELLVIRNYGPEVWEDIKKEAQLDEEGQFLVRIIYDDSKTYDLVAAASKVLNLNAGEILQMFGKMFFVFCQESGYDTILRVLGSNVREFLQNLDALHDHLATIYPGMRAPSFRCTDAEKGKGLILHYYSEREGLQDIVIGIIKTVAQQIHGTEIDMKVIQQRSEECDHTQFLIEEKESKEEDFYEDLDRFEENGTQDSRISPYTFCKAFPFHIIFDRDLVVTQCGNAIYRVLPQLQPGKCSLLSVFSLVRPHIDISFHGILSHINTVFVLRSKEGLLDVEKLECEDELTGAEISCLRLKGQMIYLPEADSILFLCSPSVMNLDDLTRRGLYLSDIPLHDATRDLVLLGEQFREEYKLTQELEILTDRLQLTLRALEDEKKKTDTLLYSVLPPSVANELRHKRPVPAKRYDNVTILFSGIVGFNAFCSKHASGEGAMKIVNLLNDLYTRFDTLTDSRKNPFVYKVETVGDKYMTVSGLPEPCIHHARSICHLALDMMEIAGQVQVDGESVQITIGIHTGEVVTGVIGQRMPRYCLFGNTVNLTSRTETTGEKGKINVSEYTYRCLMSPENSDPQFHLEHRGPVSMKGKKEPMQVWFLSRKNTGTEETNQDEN
As to the kind of experiment: Action on recombinant guanylate cyclase reporter cell line. The data set is classed as cell-based. To be noted: in some cases mean values from individual determinations. Put shortly: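 Reported value is the minimal effective concentration (MEC), in some cases a mean of single runs, taken from a recombinant rat guanylate cyclase reporter cell line.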

Data set [2] can be described thus: Determination of pharmacokinetic parameters following intravenous and oral administration (rats). Format: in vivo, male Wistar rats. To be noted: intravenous administration in rats. The method, then: B-6. Determination of Pharmacokinetic Parameters Following Intravenous and Oral Administration
The pharmacokinetic parameters of the compounds according to the invention are determined in male CD-1 mice, male Wistar rats and female beagles. Intravenous administration in the case of mice and rats is carried out by means of a species-specific plasma/DMSO formulation, and in the case of dogs by means of a water/PEG400/ethanol formulation. In all species, oral administration of the dissolved substance is performed via gavage, based on a water/PEG400/ethanol formulation. The taking of blood from rats is simplified by inserting a silicone catheter into the right Vena jugularis externa prior to substance administration. The operation is carried out at least one day prior to the experiment with […] and administration of an analgesic (atropin/Rimadyl (3/1) 0.1 ml s.c.). The blood is taken (generally more than 10 time points) within a time window including terminal time points of at least 24 to a maximum of 72 hours after substance administration. When the blood is taken, it is passed into heparinised tubes. Then the blood plasma is obtained by centrifugation and is optionally stored at −20° C. until further processing.
An internal standard (which may also be a chemically unrelated substance) is added to the samples of the compounds according to the invention, calibration samples and qualifiers, and there follows protein precipitation by means of excess acetone. Addition of a buffer solution matched to the LC conditions, and subsequent vortexing, is followed by centrifugation at 1000 g. The supernatant is analysed by LC-MS/MS using C18 reversed-phase columns and variable mobile phase mixtures. The substances are quantified via the peak heights or areas from extracted ion chromatograms of specific selected ion monitoring experiments.
The plasma concentration/time plots determined are used to calculate the pharmacokinetic parameters such as AUC, Cmax, t1/2 (terminal half life), F (bioavailability), MRT (mean residence time) and CL (clearance), using a validated pharmacokinetic calculation program.
Since the substance quantification is carried out in plasma, it is necessary to determine the blood/plasma distribution of the substance in order to be able to adjust the pharmacokinetic parameters correspondingly. For this purpose, a defined amount of substance is incubated in heparinized whole blood of the species in question in a rocking roller mixture for 20 min. After centrifugation at 1000 g, the plasma concentration is measured (by means of LC-MS/MS; see above) and determined by calculating the ratio of the Cblood/Cplasma value.

[3] abbreviates: male, Wistar, rat, plasma, iv, read-out: MRT.

Molecules are shown by their SMILES. Where a name gives a salt, the structure may show the parent alone. Read-outs that look alike come from different tables or passages of the source.

With `Cc1cc(OCc2c(F)ccc(F)c2F)c2nc(C)c(C(=O)NCC(C)(N)CF)n2c1` (single isomer, unassigned; enantiomer a) [Example 285, ent-N-(2-amino-3-fluoro-2-methylpropyl)-2,6-dimethyl-8-[(2,3,6-trifluorobenzyl)oxy]imidazo[1,2-a]pyridine-3-carboxamide (Enantiomer A)], the “MEC (minimal effective concentration)” value in data set [1] worked out at 0.3 µM. In data set [2], this compound came in with an AUCnorm of 0.54 kg·h/L and a CLblood of 1.02 L/h/kg. In addition, the half-life in data set [2] (male, Wistar, rat, plasma, iv) was 216 min. Further, the MRT in data set [2] (setting [3]) worked out at 4.4 h.
The matching figures for `CCC(C)(N)CNC(=O)c1c(C)nc2c(OCc3c(F)cccc3F)cc(C(F)F)cn12` (single isomer, unassigned; enantiomer a) [Example 287, ent-N-(2-amino-2-methylbutyl)-8-[(2,6-difluorobenzyl)oxy]-6-(difluoromethyl)-2-methylimidazo[1,2-a]pyridine-3-carboxamide Formate (Enantiomer A)]: 0.3 µM, 0.66 kg·h/L, 1.76 L/h/kg, 324 min and 8.4 h.
The matching figures for `Cc1nc2c(OCc3c(F)cccc3F)cc(C(F)F)cn2c1C(=O)NCC(C)(N)CF` (single isomer, unassigned; enantiomer a) [Example 291, ent-N-(2-amino-3-fluoro-2-methylpropyl)-8-[(2,6-difluorobenzyl)oxy]-6-(difluoromethyl)-2-methylimidazo[1,2-a]pyridine-3-carboxamide (Enantiomer A)]: 1.0 µM, 0.87 kg·h/L, 0.84 L/h/kg, 288 min and 5.7 h.
For `Cc1nc2c(OCc3c(F)cccc3F)cccn2c1C(=O)NC(CN)c1ccc(F)cc1` (single isomer, unassigned; enantiomer b) [Example 10, ent-N-[2-Amino-1-(4-fluorophenyl)ethyl]-8-[(2,6-difluorobenzyl)oxy]-2-methylimidazo[1,2-a]-pyridine-3-carboxamide (Enantiomer B)], the “MEC (minimal effective concentration)” value in data set [1] is 0.30 µM. In data set [2], this compound registered an AUCnorm of 2.26 kg·h/L and a CLblood of 0.74 L/h/kg. Further, the half-life in data set [2] (male, Wistar, rat, plasma, iv) is 288 min. The MRT in data set [2] (setting [3]) turned out to be 6.9 h.
The matching figures for `Cc1cc(OCc2c(F)cccc2F)c2nc(C)c(C(=O)NCC(C)(N)C3CC3)n2c1` (single isomer, unassigned; enantiomer b) [Example 261, ent-N-(2-Amino-2-cyclopropylpropyl)-8-[(2,6-difluorobenzyl)oxy]-2,6-dimethylimidazo[1,2-a]-pyridine-3-carboxamide (Enantiomer B)]: 0.10 µM, 0.47 kg·h/L, 2.29 L/h/kg, 222 min and 4.7 h.
As to `CCC(C)(N)CNC(=O)c1c(C)nc2c(OCc3c(F)ccc(F)c3F)cc(C)cn12` (single isomer, unassigned; enantiomer b) [Example 275, ent-N-(2-Amino-2-methylbutyl)-2,6-dimethyl-8-[(2,3,6-trifluorobenzyl)oxy]imidazo[1,2-a]-pyridine-3-carboxamide (Enantiomer B)], the “MEC (minimal effective concentration)” value in data set [1] is 0.10 µM. In data set [2], the AUCnorm was 0.64 kg·h/L, the CLblood was found to be 1.25 L/h/kg, the MRT came to 7.2 h and the t1/2 turned out to be 4.1 h.
For `CCCC(C)(N)CNC(=O)c1c(C)nc2c(OCc3c(F)cccc3F)cc(C3CC3)cn12` (single isomer, unassigned; enantiomer b) [Example 281, ent-N-(2-amino-2-methylpentyl)-6-cyclopropyl-8-[(2,6-difluorobenzyl)oxy]-2-methylimidazo[1,2-a]pyridine-3-carboxamide (Enantiomer B)], the “MEC (minimal effective concentration)” value in data set [1] stood at 0.3 µM. In data set [2], this compound displayed an AUCnorm of 0.28 kg·h/L and a CLblood of 2.34 L/h/kg. The compound further gave a half-life in data set [2] (male, Wistar, rat, plasma, iv) of 330 min. The MRT in data set [2] (setting [3]) came out at 6.9 h.
For `Cc1cc(OCc2c(F)cccc2F)c2nc(C)c(C(=O)NCC(C)(N)CF)n2c1` (single isomer, unassigned; enantiomer b) [Example 284, ent-N-(2-amino-3-fluoro-2-methylpropyl)-8-[(2,6-difluorobenzyl)oxy]-2,6-dimethylimidazo[1,2-a]pyridine-3-carboxamide (Enantiomer B)], the “MEC (minimal effective concentration)” value in data set [1] amounted to 0.1 µM. In data set [2], this compound registered an AUCnorm of 1.20 kg·h/L, a CLblood of 0.97 L/h/kg, an MRT of 5.3 h and a t1/2 of 4.6 h.
On the same counts, the results for `Cc1cc(OCc2c(F)ccc(F)c2F)c2nc(C)c(C(=O)NCC(C)(N)CF)n2c1` (single isomer, unassigned; enantiomer b) [Example 286, ent-N-(2-amino-3-fluoro-2-methylpropyl)-2,6-dimethyl-8-[(2,3,6-trifluorobenzyl)oxy]imidazo[1,2-a]pyridine-3-carboxamide (Enantiomer B)] are 0.1 µM, 0.82 kg·h/L, 1.39 L/h/kg, 4.5 h and 3.8 h.
Turning to `CCCC(C)(N)CNC(=O)c1c(C)nc2c(OCc3c(F)cccc3F)cc(C(F)F)cn12` (single isomer, unassigned; enantiomer b) [Example 289, ent-N-(2-amino-2-methylpentyl)-8-[(2,6-difluorobenzyl)oxy]-6-(difluoromethyl)-2-methyl-imidazo[1,2-a]pyridine-3-carboxamide Formate (Enantiomer B)], in data set [1], the “MEC (minimal effective concentration)” value was found to be 0.3 µM. In data set [2], the AUCnorm was determined as 0.38 kg·h/L and the CLblood was 2.51 L/h/kg. Moreover, in data set [2] (male, Wistar, rat, plasma, iv), the half-life was 264 min. Besides, the MRT in data set [2] (setting [3]) is 6.8 h.
